Laboratory results as given in patent US7807845B2, “Resistance-repellent retroviral protease inhibitors” (priority 2004, dated 2010).

Columns and labels:
wild type HIV PR = target: T1, wild type HIV PR (Human immunodeficiency virus type 1 group M subtype B, UniProt P04585); experiment: HIV PR inhibition assay, wild type; format: biochemical
T1 construct: Recombinant wild type and mutant HIV PRs were expressed using pET21 vector (Novagen) in E. coli cells; made in house
Protocol: (§1) Expression and purification of WT and mutant HIV PR. Recombinant wild type and mutant HIV PRs were expressed using pET21 vector (Novagen) in E. coli cells, and purified and refolded as described previously (Gulnik et al, 1995). The cells were resuspended in 50 mM tris-HCl buffer, pH 8.0, 25 mM NaCl, 0.2% β-mercaptoethanol (buffer A), sonicated and centrifuged. Inclusion bodies were washed first with buffer A, then with buffer A containing respectively 0.1% Triton X-100, 1 M NaCl, 1 M urea, and finally with buffer A alone. Purified inclusion bodies were solubilized by addition of buffer A containing 8 M urea at room temperature. The solution was clarified by centrifugation and loaded onto 2.6×9.5 cm Q-Sepharose column. Flow-through fractions were collected and dialyzed against 3 changes of refolding buffer, which consists of 25 mM Na-phosphate, pH 7.0, 25 mM NaCl, 0.2% β-mercaptoethanol and 10% glycerol, aliquoted and stored at −80° C.
(§2) Inhibition constants were determined using the fluorogenic substrate ArgGlu(EDANS)[…]DABCYL)Arg (Amichem, USA). HIV Protease was preincubated for 0.5-1 min at ambient temperature on a 96 well plate with different concentrations of inhibitor in 0.05 M sodium phosphate buffer, pH 6.5, containing 20 mM NaCl, 2 mM DTT and 0.01% Tween-20. The reaction was initiated by the addition of substrate. Final enzyme concentration was 2-5 nM for WT and 2-30 nM for mutants. Substrate concentration was 20 uM and DMSO concentration 2%. The increase in fluorescence intensity at the emission maximum of 520 nm (excitation wavelength 340 nm, cut-off filter 495 nm) was monitored as a function of time using a Spectramax Gemini fluorescence plate reader (Molecular Devices, CA USA). The initial rate of hydrolysis was calculated by first-degree polynomial fit using SoftMAX operating software. Data were fitted to the Michaelis-Menten equation for competitive inhibitors. For tight-binding inhibitors the data were fitted by nonlinear regression analysis to the equation V=V0/2Et({[Ki(1+S/Km)+It−Et]^2+4Ki(1+S/Km)Et}^1/2−[Ki(1+S/Km)+It−Et]) (Williams and Morrison, 1979) with the program GraFit, version 5 (Erithacus Software Limited, UK), where V and V0 are initial velocities with and without inhibitor, Km is the Michaelis-Menten constant and S, Et and It are the concentrations of substrate, active enzyme and inhibitor respectively.

mutant HIV PR (Mutant 8) = mutant HIV PR (Mutant 8) (Human immunodeficiency virus type 1 group M subtype B, UniProt P04585); experiment: HIV PR inhibition assay, Mutant 8; format: biochemical; settings: read-out: Ki Mutant 8; recombinant mutant HIV PR, fluorogenic substrate, pH 6.5
Protocol: as §1, §2

mutant HIV PR (Mutant 9) = mutant HIV PR (Mutant 9) (Human immunodeficiency virus type 1 group M subtype B, UniProt P04585); experiment: HIV PR inhibition assay, Mutant 9; format: biochemical; settings: read-out: Ki Mutant 9; recombinant mutant HIV PR, fluorogenic substrate, pH 6.5
Protocol: as §1, §2

[1] = target: mutant HIV PR (Mutant 10) (Human immunodeficiency virus type 1 group M subtype B, UniProt P04585); experiment: HIV PR inhibition assay, Mutant 10; format: biochemical; settings: read-out: Ki Mutant 10; recombinant mutant HIV PR, fluorogenic substrate, pH 6.5
Protocol: as §1, §2

WT=HIVHXB2 = experiment: Antiviral assay in MT-4 cells (MTT), WT virus; format: cell-based, HIV; settings: Human immunodeficiency virus 1, MT4, 120 h, HIVHXB2, 5 days
Protocol: (§3) MT-4 cells were obtained from the AIDS Research and Reference Reagent Program (ARRRP, Division of AIDS, NIAID, NIH: MT-4 from Dr. D. Richman). Cells were propagated in RPMI 1640 supplemented with 10% fetal bovine serum, 50U of penicillin and 50 μg of streptomycin per ml (Invitrogen, Carlsbad Calif.). The following HIV viruses were used for testing of antiviral potency of compounds: WT=HIVHXB2; recombinant HIVHXB2 virus from drug resistant patient isolates; HIVmutant10 (16 mutations); HIVmutant8 (14 mutations); HIVmutant9 (10 mutations).
(§4) The potency of test compound was determined as previously described (ref 1-3) with minor modifications. MT-4 cells (1.5×10^4/ml) were exposed to 200 50 % tissue culture infective doses (TCID50) of viruses in the presence of various concentrations of test compound in 96 well microtiter plates and incubated at 37° C. for 5 days. 3-(4,5-dimethylthiazol-2-yl)-2,5-diphenytetrazolium bromide (MTT) solution was added to a final concentration of 0.75 mg/ml, and plates were incubated 1 hour. After incubation cells were dissolved in isopropanol/Triton-X 100/HCl (1000:50:25) solution. Absorbance was monitored in a microplate reader (Spectramax, Molecular Devices) at 540 nm and 690 nm. Cytotoxicity of compounds was tested in a similar assay in the absence of virus.

[2] = system: HIVmutant8 (14 mutations); experiment: Antiviral assay in MT-4 cells (MTT), mutant 8 virus; format: cell-based, HIV; settings: Human immunodeficiency virus 1, MT4, 120 h, read-out: IC50 Mutant 8
Protocol: as §3, §4

[3] = system: HIVmutant9 (10 mutations); experiment: Antiviral assay in MT-4 cells (MTT), mutant 9 virus; format: cell-based, HIV; settings: Human immunodeficiency virus 1, MT4, 120 h, read-out: IC50 Mutant 9
Protocol: as §3, §4

[4] = system: HIVmutant10 (16 mutations); experiment: Antiviral assay in MT-4 cells (MTT), mutant 10 virus; format: cell-based, HIV; settings: Human immunodeficiency virus 1, MT4, 120 h, read-out: IC50 Mutant 10
Protocol: as §3, §4

SMILES	Ki (wild type HIV PR) [nM]	Ki (mutant HIV PR (Mutant 8)) [nM]	Ki (mutant HIV PR (Mutant 9)) [nM]	Ki [1] [nM]	IC50 (WT=HIVHXB2) [nM]	IC50 [2] [nM]	IC50 [3] [nM]	IC50 [4] [nM]
CCCN(C=C1C(=O)Nc2ccc(S(=O)(=O)N(CC(C)C)CC(O)C(Cc3ccccc3)NC(=O)OC3COC4OCCC34)cc21)CCC (stereo not drawn) [Compound 32, {1-Benzyl-3-[(3-dipropylaminomethylene-2-oxo-2,3-dihydro-1H-indole-5-sulfonyl)-isobutyl-amino]-2-hydroxy-propyl}-carbamic acid hexahydro-furo[2,3-b]furan-3-yl ester]	< 0.1	< 0.3	< 0.1	< 1	10	24	12	58
CC(C)CN(CC(O)C(Cc1ccccc1)NC(=O)OC1COC2OCCC12)S(=O)(=O)c1ccc2c(c1)C(=CNCC1CC1)C(=O)N2 (stereo not drawn) [Compound 101]	0.11	< 0.3	0.19	< 1	20	31	22	55
CC(C)CN(CC(O)C(Cc1ccccc1)NC(=O)OC1COC2OCCC12)S(=O)(=O)c1ccc2c(c1)C(=CNCC1CCCCC1)C(=O)N2 (stereo not drawn) [Compound 72, [1-Benzyl-3-({3-[(cyclohexylmethyl-amino)-methylene]-2-oxo-2,3-dihydro-1H-indole-5-sulfonyl}-isobutyl-amino)-2-hydroxy-propyl]-carbamic acid hexahydro-furo[2,3-b]furan-3-yl ester]	< 0.1	< 0.3	< 0.1	< 1	9.7	27	9	40
CC(C)CC(C)NC=C1C(=O)Nc2ccc(S(=O)(=O)N(CC(C)C)CC(O)C(Cc3ccccc3)NC(=O)OC3COC4OCCC34)cc21 (stereo not drawn) [Compound 104]	0.17	< 0.3	0.25	1.3	7	33	16	74
CCCCNC=C1C(=O)Nc2ccc(S(=O)(=O)N(CC(C)C)CC(O)C(Cc3ccccc3)NC(=O)OC3COC4OCCC34)cc21 (stereo not drawn) [Compound 57, {1-Benzyl-3-[(3-butylaminomethylene-2-oxo-2,3-dihydro-1H-indole-5-sulfonyl)-isobutyl-amino]-2-hydroxy-propyl}-carbamic acid hexahydro-furo[2,3-b]furan-3-yl ester]	< 0.1	< 0.3	0.19	< 1	13	25	11	40
CCCN(C=C1C(=O)Nc2ccc(S(=O)(=O)N(CC(C)C)CC(O)C(Cc3ccccc3)NC(=O)OC3COC4OCCC34)cc21)CC (stereo not drawn) [Compound 106]	< 0.1	< 0.3	< 0.1	< 1	21	30	20	60
CC(C)CN(C[C@@H](O)[C@H](Cc1ccccc1)NC(=O)O[C@H]1CO[C@H]2OCC[C@H]21)S(=O)(=O)c1ccc2c(c1)/C(=C/N(C)C)C(=O)N2 [Compound 21, {1-Benzyl-3-[(3-dimethylaminomethylene-2-oxo-2,3-dihydro-1H-indole-5-sulfonyl)-isobutyl-amino]-2-hydroxy-propyl}-carbamic acid hexahydro-furo[2,3-b]furan-3-yl ester]	< 0.1	< 0.3	< 0.1	< 1	93	90	65	70
CC(C)CN(C[C@@H](O)[C@H](Cc1ccccc1)NC(=O)O[C@H]1CO[C@H]2OCC[C@H]21)S(=O)(=O)c1ccc2c(c1)/C(=C/NCC(C)(C)C)C(=O)N2 [Compound 22, [1-Benzyl-3-({3-[(2,2-dimethyl-propylamino)-methylene]-2-oxo-2,3-dihydro-1H-indole-5-sulfonyl}-isobutyl-amino)-2-hydroxy-propyl]-carbamic acid hexahydro-furo[2,3b]furan-3-yl ester]	< 0.1	< 0.3	0.15	< 1	4.5	13	9.5	27
CC(C)CN(CC(O)C(Cc1ccccc1)NC(=O)OC1COC2OCCC12)S(=O)(=O)c1ccc2c(c1)C(=CNCC(F)(F)C(F)(F)C(F)(F)F)C(=O)N2 (stereo not drawn) [Compound 125]	< 0.1	< 0.3	0.17	1.2	14	37	24	39
CC(C)CN(CC(O)C(Cc1ccccc1)NC(=O)OC1COC2OCCC12)S(=O)(=O)c1ccc2c(c1)C(=CNC1CCC1)C(=O)N2 (stereo not drawn) [Compound 114]	< 0.1	< 0.3	0.15	1.2	17	30	31	115
CCCCN(C=C1C(=O)Nc2ccc(S(=O)(=O)N(CC(C)C)CC(O)C(Cc3ccccc3)NC(=O)OC3COC4OCCC34)cc21)CC (stereo not drawn) [Compound 118]	< 0.1	< 0.3	< 0.1	1.9	13	40	15	60
CC(C)CN(C=C1C(=O)Nc2ccc(S(=O)(=O)N(CC(C)C)CC(O)C(Cc3ccccc3)NC(=O)OC3COC4OCCC34)cc21)CC(C)C (stereo not drawn) [Compound 113]	< 0.1	< 0.3	0.21	2.9	8	34	23	90
